Laboratory results published in patent publication US20130217664A1, “NOVEL COMPOUNDS USEFUL FOR THE TREATMENT OF DEGENERATIVE AND INFLAMMATORY DISEASES” (priority 2012, published 2013).

What was measured:
Assay type in all cases: biochemical
human JAK1 = biological target: T1, human JAK1 (Homo sapiens, UniProt P23458); experiment: JAK1 inhibition assay (polyGT substrate / Ulight-JAK1 peptide); details: recombinant human JAK1 catalytic domain; polyGT or Ulight-JAK1 peptide assay
T1 construct: catalytic domain, amino acids 866-1154; catalog number PV4774; purchased Invitrogen PV4774
T1 sequence (P23458 866-1154): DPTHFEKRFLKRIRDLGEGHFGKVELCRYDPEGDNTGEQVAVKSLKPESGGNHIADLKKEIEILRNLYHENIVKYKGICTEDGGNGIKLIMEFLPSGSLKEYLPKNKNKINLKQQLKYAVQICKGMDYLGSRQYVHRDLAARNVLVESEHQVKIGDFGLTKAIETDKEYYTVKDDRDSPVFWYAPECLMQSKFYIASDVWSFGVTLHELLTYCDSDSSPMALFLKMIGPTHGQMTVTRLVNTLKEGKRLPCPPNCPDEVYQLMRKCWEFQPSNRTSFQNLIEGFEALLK
Protocol: 1.1 JAK1 Inhibition Assay
1.1.1 JAK1 Assay polyGT Substrate
After 45 min at 30° C., reactions are stopped by adding of 25 μL/well of 150 mM phosphoric acid. […] Plates are washed 6 times with 300 μL per well of a 75 mM phosphoric acid solution and the bottom of the plates is sealed. 40 μL/well of Microscint-20 is added, the top of the plates is sealed and readout is performed using the Topcount (Perkin Elmer). Kinase activity is calculated by subtracting counts per min (cpm) obtained in the presence of a positive control inhibitor (10 μM staurosporine) from cpm obtained in the presence of vehicle. The ability of a test compound to inhibit this activity is determined as:
(§1) Percentage inhibition=((cpm determined for sample with test compound present−cpm determined for sample with positive control inhibitor)divided by(cpm determined in the presence of vehicle−cpm determined for sample with positive control inhibitor))*100.
Dose dilution series are prepared for the compounds enabling the testing of dose-response effects in the JAK1 assay and the calculation of the IC50 for each compound.
1.1.2 JAK1 Ulight-JAK1 Peptide Assay
After 60 min at room temperature, reactions were stopped by adding 20 μL/well of detection mixture (1× detection buffer (Perkin Elmer, catalog number CR97-100C), 0.5 nM Europium-anti-phosphotyrosine (PT66) (Perkin Elmer, catalog number AD0068), 10 mM EDTA). […] Kinase activity was calculated by subtracting relative fluorescence units (RFU) obtained in the presence of a positive control inhibitor (10 μM staurosporine) from RFU obtained in the presence of vehicle. The ability of a test compound to inhibit this activity was determined as:
Percentage inhibition=((RFU determined for sample with test compound present−RFU determined for sample with positive control inhibitor)divided by(RFU determined in the presence of vehicle−RFU determined for sample with positive control inhibitor))*100.
Dose dilution series were prepared for the compounds enabling the testing of dose-response effects in the JAK1 assay and the calculation of the IC50 for the compound. Each compound is routinely tested at concentration of 20 μM followed by a 1/5 serial dilution, 10 points in a final concentration of 1% DMSO. […] The data are expressed as the average IC50 from the assays±standard error of the mean.

human JAK3 = biological target: T2, human JAK3 (Homo sapiens, UniProt P52333); experiment: JAK3 inhibition assay; details: recombinant human JAK3 catalytic domain; polyGT substrate
T2 construct: catalytic domain (amino acids 781-1124; catalog number PV3855); purchased Invitrogen PV3855
T2 sequence (P52333 781-1124): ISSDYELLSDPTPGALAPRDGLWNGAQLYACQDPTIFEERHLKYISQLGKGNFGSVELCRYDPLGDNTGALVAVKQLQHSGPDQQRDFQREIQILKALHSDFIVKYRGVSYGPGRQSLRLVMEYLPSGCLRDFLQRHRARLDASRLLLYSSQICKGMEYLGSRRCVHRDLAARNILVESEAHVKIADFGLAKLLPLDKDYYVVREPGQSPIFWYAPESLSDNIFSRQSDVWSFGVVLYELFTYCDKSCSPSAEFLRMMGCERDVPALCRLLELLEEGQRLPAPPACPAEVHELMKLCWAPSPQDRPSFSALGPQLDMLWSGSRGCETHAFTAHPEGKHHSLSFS
Protocol: 1.3 JAK3 Inhibition Assay
0.5 ng JAK3 protein was incubated with 2.5 μg polyGT substrate (Sigma catalog number P0275) in kinase reaction buffer (25 mM Tris pH 7.5, 0.5 mM EGTA, 10 mM MgCl2, 2.5 mM DTT, 0.5 mM Na3VO4, 5 mM b-glycerolphosphate, 0.01% Triton X-100, 1 μM non-radioactive ATP, 0.25 μCi 33P-gamma-ATP (GE Healthcare, catalog number AH9968) final concentrations) with or without 5 μL containing test compound or vehicle (DMSO, 1% final concentration), in a total volume of 25 μL, in a polypropylene 96-well plate (Greiner, V-bottom). After 45 min at 30° C., reactions were stopped by adding 25 μL/well of 150 mM phosphoric acid. […] Plates were washed 6 times with 300 μL per well of a 75 mM phosphoric acid solution and the bottom of the plates was sealed. 40 μL/well of Microscint-20 was added, the top of the plates was sealed and readout was performed using the Topcount (Perkin Elmer). Kinase activity was calculated by subtracting counts per min (cpm) obtained in the presence of a positive control inhibitor (10 μM staurosporine) from cpm obtained in the presence of vehicle. The ability of a test compound to inhibit this activity was determined as:
as §1
Dose dilution series were prepared for the compounds enabling the testing of dose-response effects in the JAK3 assay and the calculation of the IC50 for each compound. Each compound was routinely tested at concentration of 20 μM followed by a 1/5 serial dilution, 10 points in a final concentration of 1% DMSO.

human TYK2 = biological target: T3, human TYK2 (Homo sapiens, UniProt P29597); experiment: TYK2 inhibition assay; details: recombinant human TYK2 catalytic domain, polyGT substrate
T3 construct: catalytic domain (amino acids 871-1187; catalog number 08-147); purchased Carna Biosciences 08-147
T3 sequence (P29597 871-1187): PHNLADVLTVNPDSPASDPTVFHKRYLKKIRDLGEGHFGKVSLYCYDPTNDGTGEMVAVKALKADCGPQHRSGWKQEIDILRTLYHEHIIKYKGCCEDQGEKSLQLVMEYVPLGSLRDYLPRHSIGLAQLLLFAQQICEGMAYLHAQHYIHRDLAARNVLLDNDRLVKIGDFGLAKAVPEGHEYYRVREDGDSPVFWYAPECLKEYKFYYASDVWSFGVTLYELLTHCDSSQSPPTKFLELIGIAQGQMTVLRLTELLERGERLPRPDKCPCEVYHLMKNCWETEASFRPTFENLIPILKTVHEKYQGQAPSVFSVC
Protocol: 1.4 TYK2 Inhibition Assay
After 90 min at 30° C., reactions were stopped by adding 25 μL/well of 150 mM phosphoric acid. […] Plates were washed 6 times with 300 μL per well of a 75 mM phosphoric acid solution and the bottom of the plates was sealed. 40 μL/well of Microscint-20 was added, the top of the plates was sealed and readout was performed using the Topcount (Perkin Elmer). Kinase activity was calculated by subtracting counts per min (cpm) obtained in the presence of a positive control inhibitor (10 μM staurosporine) from cpm obtained in the presence of vehicle. The ability of a test compound to inhibit this activity was determined as:
as §1
Dose dilution series were prepared for the compounds enabling the testing of dose-response effects in the TYK2 assay and the calculation of the IC50 for each compound.

| SMILES | IC50 (human JAK1) [nM] | IC50 (human JAK3) [nM] | IC50 (human TYK2) [nM] |
| --- | --- | --- | --- |
| CCc1cc(-c2ccsc2)ncc1N(C)c1cc2c(cn1)ncn2C [Compound 288, (4-Ethyl-6-thiophen-3-yl-pyridin-3-yl)-methyl-(1-methyl-1H-imidazo[4,5-c]pyridin-6-yl)-amine] | 0.01 to 100 | 0.01 to 100 | 0.01 to 100 |
| CCc1ccccc1N(C)c1cc2c(cn1)ncn2C [Compound 16, (2-Ethyl-phenyl)-methyl-(1-methyl-1H-imidazo[4,5-c]pyridin-6-yl)-amine] |  | 501 to 1000 | 101 to 500 |
| CCc1cc(-c2ccc(OC)nc2)ccc1N(C)c1cc2c(cn1)ncn2C [Compound 130, N-(2-ethyl-4-(6-methoxypyridin-3-yl)phenyl)-N,1-dimethyl-1H-imidazo[4,5-c]pyridin-6-amine] | 0.01 to 100 | 101 to 500 | 0.01 to 100 |
| CCc1cc(O[C@H]2CCN(S(C)(=O)=O)C2)ccc1N(C)c1cc2c(cn1)ncn2C [Compound 260, (S)-N-(2-ethyl-4-(1-(methylsulfonyl)pyrrolidin-3-yloxy)phenyl)-N,1-dimethyl-1H-imidazo[4,5-c]pyridin-6-amine] | 0.01 to 100 | 101 to 500 | 101 to 500 |
| CCc1cc(C(=O)NC2(C#N)CCN(C)CC2)ccc1N(C)c1cc2c(cn1)ncn2C [Compound 166, N-(4-cyano-1-methylpiperidin-4-yl)-3-ethyl-4-(methyl(1-methyl-1H-imidazo[4,5-c]pyridin-6-yl)amino)benzamide] | 0.01 to 100 | > 1000 | > 1000 |
| CCc1cc(C(=O)NC#N)ccc1N(C)c1cc2c(cn1)ncn2C [Compound 179, N-Cyano-3-ethyl-4-(methyl(1-methyl-1H-imidazo[4,5-c]pyridin-6-yl)amino)benzamide] | 0.01 to 100 | 101 to 500 | 0.01 to 100 |
| CCc1cc(C(=O)NCC(C)(C)O)ccc1N(C)c1cc2c(cn1)ncn2C [Compound 161, 3-ethyl-N-(2-hydroxy-2-methylpropyl)-4-(methyl(1-methyl-1H-imidazo[4,5-c]pyridin-6-yl)amino)benzamide] | 101 to 500 | > 1000 | > 1000 |
| COc1cc(-c2cccs2)ncc1N(C)c1cc2c(cn1)ncn2C [Compound 264] | 0.01 to 100 | 101 to 500 | 0.01 to 100 |
| CCc1cc(C(=O)NCC2CCCCN2C)ccc1N(C)c1cc2c(cn1)ncn2C (centres unmarked) [Compound 165, 3-ethyl-4-(methyl(1-methyl-1H-imidazo[4,5-c]pyridin-6-yl)amino)-N-((1-methylpiperidin-2-yl)methyl)benzamide] | 101 to 500 | > 1000 | > 1000 |
| CCc1cc(-c2cccs2)ncc1N(C)c1cc2c(cn1)ncn2C [Compound 289] | 0.01 to 100 | 0.01 to 100 | 0.01 to 100 |
| CCc1cc(-c2ccc(C#N)cc2)ccc1N(C)c1cc2c(cn1)ncn2C [Compound 162, 3′-ethyl-4′-(methyl(1-methyl-1H-imidazo[4,5-c]pyridin-6-yl)amino)biphenyl-4-carbonitrile] | 0.01 to 100 | 101 to 500 | 0.01 to 100 |

The next lines start with the values.

| IC50 (human JAK1) [nM] | IC50 (human JAK3) [nM] | IC50 (human TYK2) [nM] | SMILES |
| --- | --- | --- | --- |
| 0.01 to 100 | 0.01 to 100 | 101 to 500 | CCc1cc(CN(C)S(=O)(=O)C2CC2)ccc1N(C)c1cc2c(cn1)ncn2C [Compound 292, Cyclopropanesulfonic acid {3-ethyl-4-[methyl-(1-methyl-1H-imidazo[4,5-c]pyridin-6-yl)-amino]-benzyl}-methyl-amide] |
| 0.01 to 100 | > 1000 | 101 to 500 | CCc1cc(CNC2CCN(C(=O)OC(C)(C)C)C2)ccc1N(C)c1cc2c(cn1)ncn2C (centres unmarked) [Compound 291, 3-{3-Ethyl-4-[methyl-(1-methyl-1H-imidazo[4,5-c]pyridin-6-yl)-amino]-benzylamino}-pyrrolidine-1-carboxylic acid tert-butyl ester] |
| 0.01 to 100 | 0.01 to 100 | 0.01 to 100 | CCc1cc(CN(C)S(=O)(=O)CC)ccc1N(C)c1cc2c(cn1)ncn2C [Compound 294, Ethanesulfonic acid {3-ethyl-4-[methyl-(1-methyl-1H-imidazo[4,5-c]pyridin-6-yl)-amino]-benzyl}-methyl-amide] |
| 0.01 to 100 | > 1000 | > 1000 | CCc1cc(CNC2CCNC2)ccc1N(C)c1cc2c(cn1)ncn2C (centres unmarked) [Compound 293, [2-Ethyl-4-(pyrrolidin-3-ylaminomethyl)-phenyl]-methyl-(1-methyl-1H-imidazo[4,5-d]pyridin-6-yl)-amine] |
| 0.01 to 100 | 0.01 to 100 | 0.01 to 100 | CCc1cc(C2CN(S(C)(=O)=O)C2)ccc1N(C)c1cc2c(cn1)ncn2C [Compound 290, [2-Ethyl-4-(1-methanesulfonyl-azetidin-3-yl)-phenyl]-methyl-(1-methyl-1H-imidazo[4,5-c]pyridin-6-yl)-amine] |
